Holding throughout (assay): relative viability (nuclei count vs DMSO), 5 days (fraction); higher = more cells survive
Compound in the experiment “Sunitinib + Trametinib”: CCN(CC)CCNC(=O)c1c(C)[nH]c(/C=C2\C(=O)Nc3ccc(F)cc32)c1C [Sunitinib] + CC(=O)Nc1cccc(-n2c(=O)n(C3CC3)c(=O)c3c(Nc4ccc(I)cc4F)n(C)c(=O)c(C)c32)c1 [Trametinib] (partner 0.02 µM)
The method, boiled down:
(§1)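 For relative viability, nuclei counts in treated wells were divided by those in vehicle wells. Lung cancer cell lines had been pin-tool dosed in 1536-well plates the day after seeding and cultured for 5 days, then fixed and stained in one step (final 0.05% Triton X-100, 1% formaldehyde, 1 ug/ml Hoechst) and imaged at 4×. Doses were one drug alone or a fixed anchor-drug dose plus five library-drug doses (not always all listed) in √10 steps, and values are duplicate-plate medians.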

Compound in the experiment “Sunitinib + Navitoclax”: CCN(CC)CCNC(=O)c1c(C)[nH]c(/C=C2\C(=O)Nc3ccc(F)cc32)c1C [Sunitinib] + CC1(C)CCC(c2ccc(Cl)cc2)=C(CN2CCN(c3ccc(C(=O)NS(=O)(=O)c4ccc(N[C@H](CCN5CCOCC5)CSc5ccccc5)c(S(=O)(=O)C(F)(F)F)c4)cc3)CC2)C1 [Navitoclax] (partner 0.5 µM)
The essentials: as §1

Compound in the experiment “Sunitinib + Phenformin”: CCN(CC)CCNC(=O)c1c(C)[nH]c(/C=C2\C(=O)Nc3ccc(F)cc32)c1C [Sunitinib] + N=C(N)NC(=N)NCCc1ccccc1 [Phenformin] (partner 250 µM)
The method, boiled down: as §1

Compound in the experiment “Sunitinib + Pemetrexed”: CCN(CC)CCNC(=O)c1c(C)[nH]c(/C=C2\C(=O)Nc3ccc(F)cc32)c1C [Sunitinib] + Nc1nc2[nH]cc(CCc3ccc(C(=O)N[C@@H](CCC(=O)O)C(=O)O)cc3)c2c(=O)[nH]1 [Pemetrexed] (partner 0.2 µM)
The method, boiled down: as §1

As for NCI-H2347, the relative viability was found to be 0.293 with Sunitinib + Trametinib (first compound 0.02 µM); 0.251 with Sunitinib + Trametinib (first compound 0.06325 µM); 0.24 with Sunitinib + Trametinib (first compound 0.2 µM); 0.314 with Sunitinib + Trametinib (first compound 0.6325 µM); 0.296 in the experiment with Sunitinib + Trametinib (first compound 2 µM); 0.888 with Sunitinib + Navitoclax (first compound 0.02 µM). Further, the relative viability with Sunitinib + Navitoclax (first compound 0.06325 µM) was found to be 0.825; with Sunitinib + Navitoclax (first compound 0.2 µM) it was 0.836; with Sunitinib + Navitoclax (first compound 0.6325 µM) it was 0.817; with Sunitinib + Navitoclax (first compound 2 µM), 0.818; with Sunitinib + Phenformin (first compound 0.02 µM) it was 0.486; in the experiment with Sunitinib + Phenformin (first compound 0.06325 µM), 0.484. Moreover, the relative viability with Sunitinib + Phenformin (first compound 0.2 µM) was 0.567; in the experiment with Sunitinib + Phenformin (first compound 0.6325 µM) it was 0.384; with Sunitinib + Phenformin (first compound 2 µM) it was 0.404; with Sunitinib + Pemetrexed (first compound 0.02 µM), 0.415; in the experiment with Sunitinib + Pemetrexed (first compound 0.06325 µM), 0.446; with Sunitinib + Pemetrexed (first compound 0.2 µM), 0.419. Moreover, the relative viability turned out to be 0.44 in the experiment with Sunitinib + Pemetrexed (first compound 0.6325 µM) and 0.458 in the experiment with Sunitinib + Pemetrexed (first compound 2 µM).
Take HOP-62: the relative viability with Sunitinib + Trametinib (first compound 0.02 µM) was 0.376; with Sunitinib + Trametinib (first compound 0.06325 µM), 0.364; with Sunitinib + Trametinib (first compound 0.2 µM) it was 0.389; with Sunitinib + Trametinib (first compound 0.6325 µM) it was 0.374; with Sunitinib + Trametinib (first compound 2 µM), 0.379; with Sunitinib + Navitoclax (first compound 0.02 µM), 1.09. Also, the relative viability in the experiment with Sunitinib + Navitoclax (first compound 0.06325 µM) is 1.16; with Sunitinib + Navitoclax (first compound 0.2 µM), 1.17; in the experiment with Sunitinib + Navitoclax (first compound 0.6325 µM) it was 1.09; in the experiment with Sunitinib + Navitoclax (first compound 2 µM), 0.942; with Sunitinib + Phenformin (first compound 0.02 µM), 0.614; with Sunitinib + Phenformin (first compound 0.06325 µM) it was 0.713. For the same cell line, the relative viability in the experiment with Sunitinib + Phenformin (first compound 0.2 µM) was 0.745; with Sunitinib + Phenformin (first compound 0.6325 µM), 0.661; with Sunitinib + Phenformin (first compound 2 µM), 0.698; in the experiment with Sunitinib + Pemetrexed (first compound 0.02 µM), 0.33; with Sunitinib + Pemetrexed (first compound 0.06325 µM), 0.366; with Sunitinib + Pemetrexed (first compound 0.2 µM) it was 0.337. In addition, the relative viability in the experiment with Sunitinib + Pemetrexed (first compound 0.6325 µM) is 0.369; with Sunitinib + Pemetrexed (first compound 2 µM) it was 0.417.
In the case of ChaGo-K-1, the relative viability came to 0.814 with Sunitinib + Trametinib (first compound 0.02 µM); 0.919 with Sunitinib + Trametinib (first compound 0.06325 µM); 0.977 with Sunitinib + Trametinib (first compound 0.2 µM); 0.889 with Sunitinib + Trametinib (first compound 0.6325 µM); 0.888 with Sunitinib + Trametinib (first compound 2 µM); 0.911 with Sunitinib + Navitoclax (first compound 0.02 µM). Moreover, the relative viability is 1.02 in the experiment with Sunitinib + Navitoclax (first compound 0.06325 µM); 0.978 with Sunitinib + Navitoclax (first compound 0.2 µM); 0.914 with Sunitinib + Navitoclax (first compound 0.6325 µM); 0.936 with Sunitinib + Navitoclax (first compound 2 µM); 0.409 with Sunitinib + Phenformin (first compound 0.02 µM); 0.543 in the experiment with Sunitinib + Phenformin (first compound 0.06325 µM). Further, the relative viability stood at 0.508 with Sunitinib + Phenformin (first compound 0.2 µM); 0.516 with Sunitinib + Phenformin (first compound 0.6325 µM); 0.488 with Sunitinib + Phenformin (first compound 2 µM); 0.263 in the experiment with Sunitinib + Pemetrexed (first compound 0.02 µM); 0.268 with Sunitinib + Pemetrexed (first compound 0.06325 µM); 0.258 in the experiment with Sunitinib + Pemetrexed (first compound 0.2 µM). For the same cell line, the relative viability in the experiment with Sunitinib + Pemetrexed (first compound 0.6325 µM) is 0.255; in the experiment with Sunitinib + Pemetrexed (first compound 2 µM), 0.258.
Take NCI-H520: the relative viability in the experiment with Sunitinib + Trametinib (first compound 0.02 µM) amounted to 0.657; with Sunitinib + Trametinib (first compound 0.06325 µM), 0.813; with Sunitinib + Trametinib (first compound 0.2 µM), 0.727; with Sunitinib + Trametinib (first compound 0.6325 µM), 0.772; with Sunitinib + Trametinib (first compound 2 µM), 0.601; with Sunitinib + Navitoclax (first compound 0.06325 µM), 1.11. The relative viability with Sunitinib + Navitoclax (first compound 0.2 µM) turned out to be 1.21; in the experiment with Sunitinib + Navitoclax (first compound 0.6325 µM), 1.02; with Sunitinib + Navitoclax (first compound 2 µM) it was 0.897; in the experiment with Sunitinib + Phenformin (first compound 0.02 µM) it was 0.674; with Sunitinib + Phenformin (first compound 0.06325 µM) it was 0.685; with Sunitinib + Phenformin (first compound 0.2 µM) it was 0.471. Further, the relative viability was 0.661 with Sunitinib + Phenformin (first compound 0.6325 µM); 0.424 with Sunitinib + Phenformin (first compound 2 µM); 0.61 in the experiment with Sunitinib + Pemetrexed (first compound 0.02 µM); 0.814 with Sunitinib + Pemetrexed (first compound 0.06325 µM); 0.686 with Sunitinib + Pemetrexed (first compound 0.2 µM); 0.761 with Sunitinib + Pemetrexed (first compound 0.6325 µM). In the experiment with Sunitinib + Pemetrexed (first compound 2 µM), the relative viability was 0.6.
As to HCC-78, the relative viability in the experiment with Sunitinib + Trametinib (first compound 0.02 µM) is 0.76; with Sunitinib + Trametinib (first compound 0.06325 µM), 0.812; with Sunitinib + Trametinib (first compound 0.2 µM), 0.985; with Sunitinib + Trametinib (first compound 0.6325 µM), 0.737; in the experiment with Sunitinib + Trametinib (first compound 2 µM) it was 0.701; with Sunitinib + Navitoclax (first compound 0.02 µM), 0.756. Besides, the relative viability was found to be 0.684 with Sunitinib + Navitoclax (first compound 0.2 µM); 0.869 with Sunitinib + Navitoclax (first compound 2 µM); 0.639 with Sunitinib + Phenformin (first compound 0.02 µM); 0.726 in the experiment with Sunitinib + Phenformin (first compound 0.06325 µM); 0.71 with Sunitinib + Phenformin (first compound 0.2 µM); 0.677 with Sunitinib + Phenformin (first compound 0.6325 µM). Moreover, the relative viability with Sunitinib + Phenformin (first compound 2 µM) is 0.806; with Sunitinib + Pemetrexed (first compound 0.02 µM), 0.914; with Sunitinib + Pemetrexed (first compound 0.06325 µM) it was 0.927; with Sunitinib + Pemetrexed (first compound 0.2 µM), 0.949; with Sunitinib + Pemetrexed (first compound 0.6325 µM), 0.93.
